From patent US12410152B2, “Oxazole and thioazole-type cullin ring ubiquitin ligase compounds and uses thereof” (Proxygen GmbH, priority 2019, dated 2025)

Key:
[1] = test system: KBM7 WT and UBE2Mmut cells; assay: Primary phenotypic screen, differential viability KBM7 WT vs UBE2M mutant; format: cell-based, human; details: 10 μM and 500 nM, 3 days
Protocol: Following this observation, it was rationalized that novel small molecule degraders can be identified in an unbiased manner, simply by searching for compounds that lose activity in the absence of UBE2M. 2000 small molecules, mostly of unknown function/target, were tested for their antiproliferative effects in human leukemia cells (KBM7). These cells were either transduced with a control sgRNA (KBM7WT), or with an sgRNA targeting UBE2M, leading to a hypomorph (deletion of six amino acids) with a functional impairment (UBE2Mmut).
KBM7^WT and UBE2M^mut cells were treated with a compound library (2000 cytotoxic diverse small-molecules, mostly of unknown function/target). Briefly, the screening was divided in three parts 1) primary screening, 2) follow up and 3) validation. During the primary screening, cells were treated with 10 μM and 500 nM of every compound. […] After 3 days of treatment, cell viability was measured (CellTiter Glo, Promega). The screen was perform in 384-well plates (Corning 3712) and the reagent/compound dispensing system used was: Echo 520 Liquid Handler, Multidrop™ Combi Reagent Dispenser. Control compounds were included in several wells, in all the plates. Method for validation of IC021313.2, IC020822.1, IC020772.1, T6938051 as described above in (i).

[2] = test system: KBM7 WT cells (global proteome); assay: Quantitative expression proteomics (TMT isobaric tagging), drug vs DMSO; format: cell-based, human
Text: The mechanism by which the assayed molecules re-program a functional CRL4B complex based on the data shown could be that drug binding to CUL4B recruits a neo-substrate directly to the cullin backbone. Alternatively, drug binding could stabilize CUL4B function to boost time intervals where a functionally competent CUL4B complexes can be formed. Here, the word “functional” implies that the CUL4B backbone of this complex needs to be neddylated, and a CUL4B associated E2 ubiquitin-conjugating enzyme (UBE2G1) needs to be bound. FIG. 9 outlines one possible mechanism. Both predicted mechanisms of action would result in a functionally altered CRL4B complex, and thus an altered stability of drug-induced (neo-) substrates. In order to identify target proteins with a decreased abundance or, in other words, target proteins that become degraded by CRL4B after drug treatment, global proteome composition was measured using quantitative expression proteomics (TMT-labeling). In brief, KBM7 cells were drug treated for 12 hours, lysed, and subjected to isobaric tagging. Ensuing proteomics analysis quantified a total of 7,903 proteins at a minimum spectral count of 2. […] Data on essentiality are taken from Hart et al., G3, August 2017 (PMID: 28655737).
50×10^6 KBM7^WT cells per condition were collected, washed four times with ice-cold PBS, the supernatant aspirated and pellets snap-frozen in liquid N2. Each washed cell pellet was lysed separately in 40 μL of freshly prepared lysis buffer as previously described (see Mayor-Ruiz et al., Mol Cell 2019)
Offline Fractionation via RP-HPLC at high pH and 2D-RP/RP Liquid Chromatography Mass Spectrometry were performed as previously described (see Mayor-Ruiz et al., Mol Cell 2019).
Acquired raw data files were processed using the Proteome Discoverer 2.2.0 platform, utilizing the Sequest HT database search engine and Percolator validation software node (V3.04) to remove false positives with a false discovery rate (FDR) of 1% on peptide and protein level under strict conditions. Searches were performed with full tryptic digestion against the human SwissProt database v2017.06 with up to two allowed miscleavage sites. Oxidation (+15.9949 Da) of methionine was set as variable modification, whilst carbamidomethylation (+57.0214 Da) of cysteine residues and TMT 6-plex labelling of peptide N-termini and lysine residues were set as fixed modifications. Data was searched with mass tolerances of ±10 ppm and ±0.02 Da on the precursor and fragment ions, respectively. Results were filtered to include peptide spectrum matches (PSMs) with Sequest HT cross-correlation factor (Xcorr) scores of […] and high peptide confidence assigned by Percolator. MS^2 signal-to-noise values (S/N) values of TMT reporter ions were used to estimate peptide/protein abundance changes. PSMs with precursor isolation interference values of ≥ 50% and average TMT-reporter ion S/N≤10 were excluded from quantitation. Only unique peptides were used for TMT quantitation as well as for TOP3 label-free quantitation. Isotopic impurity correction and TMT channel-normalization based on total peptide amount were applied. For statistical analysis and p-value calculation, the integrated ANOVA hypothesis test was used. TMT ratios with p-values below 0.01 were considered as significant. Only proteins with >1 peptide detected and >1 unique peptide detected were considered for further analysis. For the calling of destabilized proteins, a log 2 fold change threshold (drug/DMSO) of −0.3 was applied.
Comparison of overall proteome-wide changes in KBM7 cells treated with IC020772.1 (2.5 μM), IC021313.2 (7 μM) or T6938051 (3.5 μM) for 5 h and 12h, using quantitative proteomics based on isobaric tagging.
The protein names in Table 4, Table 5 and Table 6 refer to the protein names as provided by HUGO Gene Nomenclature Committee (HGNC) database. […]

Question: With O=C(CSc1nnc2c(n1)[nH]c1ccccc12)Nc1ccc(Cl)cn1 [IC020772.1] as the compound, how does the “hit in differential viability screen” value [1] read?
Answer: The value was “stood out in terms of fold-change significance”.

Question: And the “log2FC (IC020772.1/DMSO)” value ([2]; ACD (Q96AP0-1))?
Answer: The value was −0.567.

Question: And the “log2FC (IC020772.1/DMSO)” value ([2]; AEN (Q8WTP8-2))?
Answer: The value was −0.5522.

Question: What about the “log2FC (IC020772.1/DMSO)” value ([2]; ANTXR2 (P58335-4)) of the same compound?
Answer: Its value is −0.5522.

Question: And the “log2FC (IC020772.1/DMSO)” value ([2]; APEX2 (Q9UBZ4))?
Answer: Its value is −1.224.

Question: And the “log2FC (IC020772.1/DMSO)” value ([2]; APOB (P04114))?
Answer: The value was −0.5002.

Question: And the “log2FC (IC020772.1/DMSO)” value ([2]; APOL2 (Q9BQE5))?
Answer: The value was −0.5585.

Question: What about the “log2FC (IC020772.1/DMSO)” value ([2]; ARSK (Q6UWY0)) of the same compound?
Answer: Its value is −0.486.

Question: What about the “log2FC (IC020772.1/DMSO)” value ([2]; ASPM (Q8IZT6-1)) of the same compound?
Answer: The value was −0.5416.

Question: And the “log2FC (IC020772.1/DMSO)” value ([2]; BICD1 (Q96G01-1))?
Answer: Its value is −0.5479.

Question: What about the “log2FC (IC020772.1/DMSO)” value ([2]; BTBD10 (Q9BSF8-2)) of the same compound?
Answer: Its value is −0.6371.

Question: What about the “log2FC (IC020772.1/DMSO)” value ([2]; C8orf59 (Q8N0T1-1)) of the same compound?
Answer: Its value is −1.442.

Question: What about the “log2FC (IC020772.1/DMSO)” value ([2]; C12orf45 (Q8N5I9)) of the same compound?
Answer: Its value is −0.5479.

Question: And the “log2FC (IC020772.1/DMSO)” value ([2]; CCDC32 (Q9BV29-2))?
Answer: The value was −1.221.

Question: And the “log2FC (IC020772.1/DMSO)” value ([2]; CCDC61 (Q9Y6R9-1))?
Answer: Its value is −0.567.

Question: And the “log2FC (IC020772.1/DMSO)” value ([2]; CCNB1 (P14635-1))?
Answer: The value was −0.5416.

Question: What about the “log2FC (IC020772.1/DMSO)” value ([2]; CCND3 (P30281-1)) of the same compound?
Answer: Its value is −0.5479.

Question: And the “log2FC (IC020772.1/DMSO)” value ([2]; CDC6 (Q99741))?
Answer: Its value is −1.201.

Question: What about the “log2FC (IC020772.1/DMSO)” value ([2]; CDC7 (O00311-1)) of the same compound?
Answer: The value was −0.5585.

Question: What about the “log2FC (IC020772.1/DMSO)” value ([2]; CDCA7 (Q9BWT1-1)) of the same compound?
Answer: The value was −1.311.

Question: What about the “log2FC (IC020772.1/DMSO)” value ([2]; CEP70 (Q8NHQ1-1)) of the same compound?
Answer: Its value is −0.4941.

Question: And the “log2FC (IC020772.1/DMSO)” value ([2]; CHEK1 (O14757-1))?
Answer: Its value is −0.5522.

Question: What about the “log2FC (IC020772.1/DMSO)” value ([2]; CLIP1 (P30622-2)) of the same compound?
Answer: Its value is −0.4982.

Question: What about the “log2FC (IC020772.1/DMSO)” value ([2]; CLK2 (P49760-1)) of the same compound?
Answer: Its value is −0.5395.

Question: What about the “log2FC (IC020772.1/DMSO)” value ([2]; CNTLN (Q9NXG0-2)) of the same compound?
Answer: Its value is −0.5585.

Question: What about the “log2FC (IC020772.1/DMSO)” value ([2]; CSPP1 (Q1MSJ5-3)) of the same compound?
Answer: Its value is −0.4961.

Question: And the “log2FC (IC020772.1/DMSO)” value ([2]; CTNNAL1 (Q9UBT7-1))?
Answer: The value was −0.5564.

Question: And the “log2FC (IC020772.1/DMSO)” value ([2]; Cllorf98 (E9PRG8))?
Answer: Its value is −0.6304.

Question: And the “log2FC (IC020772.1/DMSO)” value ([2]; DDX28 (Q9NUL7))?
Answer: The value was −0.5437.

Question: What about the “log2FC (IC020772.1/DMSO)” value ([2]; DHFR (P00374-1)) of the same compound?
Answer: Its value is −0.4961.

Question: And the “log2FC (IC020772.1/DMSO)” value ([2]; DNAJB12 (Q9NXW2-1))?
Answer: Its value is −0.5458.

Question: What about the “log2FC (IC020772.1/DMSO)” value ([2]; DNAJB14 (Q8TBM8-1)) of the same compound?
Answer: Its value is −0.5374.

Question: And the “log2FC (IC020772.1/DMSO)” value ([2]; DPH3 (Q96FX2-1))?
Answer: Its value is −0.5564.

Question: And the “log2FC (IC020772.1/DMSO)” value ([2]; DSG2 (Q14126))?
Answer: The value was −0.5692.

Question: And the “log2FC (IC020772.1/DMSO)” value ([2]; E2F4 (Q16254))?
Answer: The value was −0.486.

Question: What about the “log2FC (IC020772.1/DMSO)” value ([2]; ERICH5 (Q6P6B1-1)) of the same compound?
Answer: Its value is −0.6371.

Question: What about the “log2FC (IC020772.1/DMSO)” value ([2]; EVI2B (P34910-2)) of the same compound?
Answer: Its value is −0.6282.

Question: And the “log2FC (IC020772.1/DMSO)” value ([2]; FAM177A1 (Q8N128-2))?
Answer: The value was −0.486.

Question: And the “log2FC (IC020772.1/DMSO)” value ([2]; FNDC3B (Q53EP0-1))?
Answer: The value was −0.6371.

Question: What about the “log2FC (IC020772.1/DMSO)” value ([2]; FYTTD1 (Q96QD9-1)) of the same compound?
Answer: Its value is −1.279.

Question: What about the “log2FC (IC020772.1/DMSO)” value ([2]; GAB1 (Q13480-2)) of the same compound?
Answer: The value was −0.5564.

Question: And the “log2FC (IC020772.1/DMSO)” value ([2]; GOSR1 (O95249-1))?
Answer: The value was −0.4961.

Question: What about the “log2FC (IC020772.1/DMSO)” value ([2]; GPT2 (Q8TD30-1)) of the same compound?
Answer: Its value is −0.5564.

Question: And the “log2FC (IC020772.1/DMSO)” value ([2]; GTSE1 (Q9NYZ3))?
Answer: The value was −0.4941.

Question: And the “log2FC (IC020772.1/DMSO)” value ([2]; HAUS1 (Q96CS2-1))?
Answer: Its value is −0.5043.

Question: What about the “log2FC (IC020772.1/DMSO)” value ([2]; HLTF (Q14527-1)) of the same compound?
Answer: The value was −0.5543.

Question: What about the “log2FC (IC020772.1/DMSO)” value ([2]; IL27RA (Q6UWB1)) of the same compound?
Answer: The value was −0.5458.

Question: What about the “log2FC (IC020772.1/DMSO)” value ([2]; JADE2 (Q9NQC1-1)) of the same compound?
Answer: Its value is −0.5395.

Question: What about the “log2FC (IC020772.1/DMSO)” value ([2]; JMJD6 (Q6NYC1-3)) of the same compound?
Answer: Its value is −0.5522.

Question: And the “log2FC (IC020772.1/DMSO)” value ([2]; JUP (P14923))?
Answer: Its value is −0.484.

Question: And the “number of proteins significantly downregulated (log2FC < -0.3), destabilized proteins” value ([2]; KBM7 cells, 12 hours, ~10xEC50, 7,903 proteins quantified)?
Answer: The value was 869.
